Several values for one entry are separate records, joined by “and”; a condition that tells them apart may be missing. Equal entries are not always repeated.
Tested on: intragastric pH
Test: 24-h intragastric pH monitoring after single intravenous dexlansoprazole in healthy Chinese subjects
Format: in vivo, human
Description: Dexlansoprazole injection (30 mg per vial) used in the PK and PD study was manufactured by Nanjing Yoko Pharma Co., Ltd. (Nanjing, China). Subjects received an intravenous infusion of 20 or 30 mg dexlansoprazole injection in sterile saline solution (100 mL/h, 60 min). The study drug was administrated with an infusing pump (SA213, Lifepum, Beijing, China) and given through an intravenous catheter in the antecubital vein opposite to the one from which blood samples were taken.
An ambulatory pH recorder (Orion II, MMS, USA) with a disposable pH catheter (VersaFlex, MMS, USA) was used to monitor intragastric pH. The electrode was placed in water for at least 10 min and then calibrated using standard buffer solutions (pH 1.07 and 7.01) before intubation. Both calibration and intubation processes were conducted under the guidance of MMS Virtual Instructor Program. The catheter, trans nasally placed 10 cm under the lower esophageal sphincter, was identified by a sharp decrease in pH (Wang et al., [2010], [2011]). Subjects were intubated on baseline and the day of dosing at about 7:30 a.m., and the intragastric pH data were recorded continuously for 24 h from 8:00 a.m. Intragastric pH was sampled every second, and the data were stored in a MMS Database program (MMS, USA). The PD parameters including Median (pH), Mean (pH), TpH≥3 (%), TpH≥4 (%), TpH≥6 (%), TpH≥6, and AUC^pH−t were analyzed by the MMS Database program.
Median (pH) and mean (pH) were well-investigated in most studies, and the percentage time of pH ≥ 4 (or pH ≥ 4 holding time ratio) was the benchmark for predicting clinical efficacy of PPIs in treating acid-related diseases (Metz et al., [2009]). Novel parameter TpH≥6 (time to first gastric pH ≥ 6, min) and AUCτ 1-τ 2pH-t (area under pH-time curve from τ1 to τ2, pH·s) were defined to evaluate the velocity and extent of pharmacodynamics with more accuracy. All parameters were calculated and compared according to time periods of 0–24, 0–4, 4–10, 10–14, and 14–24 h post dosing.
The parameter AUCτ 1-τ 2pH-t was calculated as follows:
Where t represented the time duration measured by seconds, AUCτ 1-τ 210-t was the area between the pH line = 10 and the pH-time curve, which was generated by the MMS software.
Baseline-adjusted PD parameters were calculated as follows: for example, ΔAUC^pH−t = AUC^pH−t − AUC^pH−tbaseline, ΔMean (pH) = Mean (pH) − Mean (pH)^baseline, and ΔMedian (pH) = Median (pH) − Median (pH)^baseline.

Cc1c(OCC(F)(F)F)ccnc1C[S@@+]([O-])c1nc2ccccc2[nH]1 [dexlansoprazole]
time to first gastric pH ≥ 6 (TpH≥6) (20 mg group): 76 (± 29) min and 76 ± 29 min | Mean (pH) (20 mg iv, 0–4 h): 4.3 ± 1.5 pH | Median (pH) (20 mg iv, 0–4 h): 4.6 ± 2.1 pH | TpH≥3(%) (20 mg iv, 0–4 h): 57.5 ± 22.1 % | TpH≥4(%) (20 mg iv, 0–4 h): 46.5 ± 26.3 % | TpH≥6(%) (20 mg iv, 0–4 h): 33.2 ± 29.4 % | ΔMean (pH) (20 mg iv, 0–4 h): 2.1 ± 1.1 pH | ΔMedian (pH) (20 mg iv, 0–4 h): 2.5 ± 1.9 pH | ΔTpH≥3(%) (20 mg iv, 0–4 h): 47.1 ± 20.6% | ΔTpH≥4 (%) (20 mg iv, 0–4 h): 39.0 ± 22.3 % | ΔTpH≥6(%) (20 mg iv, 0–4 h): 27.6 ± 24.2 % | Mean (pH) (20 mg iv, 0–24 h): 4.9 ± 1.2 pH | Median (pH) (20 mg iv, 0–24 h): 4.9 ± 1.5 pH | TpH≥3(%) (20 mg iv, 0–24 h): 68.5 ± 20.9 % | TpH≥4(%) (20 mg iv, 0–24 h): 60.4 ± 22.2 % | TpH≥6(%) (20 mg iv, 0–24 h): 40.1 ± 21.3 % | ΔMean (pH) (20 mg iv, 0–24 h): 2.4 ± 1.0 pH | ΔMedian (pH) (20 mg iv, 0–24 h): 3.1 ± 1.5 pH | ΔTpH≥3(%) (20 mg iv, 0–24 h): 44.5 ± 19.0 % | ΔTpH≥4 (%) (20 mg iv, 0–24 h): 45.0 ± 20.7 % | ΔTpH≥6(%) (20 mg iv, 0–24 h): 33.7 ± 18.8 % | Mean (pH) (20 mg iv, 4–10 h): 6.2 ± 1.4 pH | Median (pH) (20 mg iv, 4–10 h): 6.3 ± 1.6 pH | TpH≥3(%) (20 mg iv, 4–10 h): 89.4 ± 23.1% | TpH≥4(%) (20 mg iv, 4–10 h): 89.0 ± 22.1% | TpH≥6(%) (20 mg iv, 4–10 h): 64.1 ± 31.0 % | ΔMean (pH) (20 mg iv, 4–10 h): 3.3 ± 1.4 pH | ΔMedian (pH) (20 mg iv, 4–10 h): 3.6 ± 1.7 pH | ΔTpH≥3(%) (20 mg iv, 4–10 h): 51.8 ± 29.6% | ΔTpH≥4 (%) (20 mg iv, 4–10 h): 65.8 ± 26.9% | ΔTpH≥6(%) (20 mg iv, 4–10 h): 54.9 ± 32.2 % | Mean (pH) (20 mg iv, 10–14 h): 6.5 ± 1.6 pH | Median (pH) (20 mg iv, 10–14 h): 6.6 ± 1.6 pH | TpH≥3(%) (20 mg iv, 10–14 h): 92.7 ± 18.1% | TpH≥4(%) (20 mg iv, 10–14 h): 88.4 ± 22.7% | TpH≥6(%) (20 mg iv, 10–14 h): 70.9 ± 35.5% | ΔMean (pH) (20 mg iv, 10–14 h): 3.3 ± 1.4 pH | ΔMedian (pH) (20 mg iv, 10–14 h): 3.7 ± 1.5 pH | ΔTpH≥3(%) (20 mg iv, 10–14 h): 43.8 ± 25.3% | ΔTpH≥4 (%) (20 mg iv, 10–14 h): 55.5 ± 26.0% | ΔTpH≥6(%) (20 mg iv, 10–14 h): 63.7 ± 34.3% | Mean (pH) (20 mg iv, 14–24 h): 3.6 ± 1.3 pH | Median (pH) (20 mg iv, 14–24 h): 3.2 ± 1.4 pH | TpH≥3(%) (20 mg iv, 14–24 h): 48.7 ± 30.8 % | TpH≥4(%) (20 mg iv, 14–24 h): 37.6 ± 31.3 % | TpH≥6(%) (20 mg iv, 14–24 h): 16.3 ± 19.3 % | ΔMean (pH) (20 mg iv, 14–24 h): 1.6 ± 1.1 pH | ΔMedian (pH) (20 mg iv, 14–24 h): 1.5 ± 1.3 pH | ΔTpH≥3(%) (20 mg iv, 14–24 h): 38.8 ± 27.8 % | ΔTpH≥4 (%) (20 mg iv, 14–24 h): 31.2 ± 28.2 % | ΔTpH≥6(%) (20 mg iv, 14–24 h): 12.0 ± 14.0 % | time to first gastric pH ≥ 6 (TpH≥6) (30 mg group): 58 (± 25) min and 58 ± 25 min | Mean (pH) (30 mg iv, 0–4 h): 5.5 ± 1.5 pH | Median (pH) (30 mg iv, 0–4 h): 6.1 ± 2.0 pH | TpH≥3(%) (30 mg iv, 0–4 h): 72.3 ± 20.8% | TpH≥4(%) (30 mg iv, 0–4 h): 66.5 ± 23.4% | TpH≥6(%) (30 mg iv, 0–4 h): 54.6 ± 29.2% | ΔMean (pH) (30 mg iv, 0–4 h): 3.3 ± 1.1 pH | ΔMedian (pH) (30 mg iv, 0–4 h): 4.1 ± 1.9 pH | ΔTpH≥3(%) (30 mg iv, 0–4 h): 57.5 ± 22.2% | ΔTpH≥4 (%) (30 mg iv, 0–4 h): 56.6 ± 19.6% | ΔTpH≥6(%) (30 mg iv, 0–4 h): 50.7 ± 26.1% | Mean (pH) (30 mg iv, 0–24 h): 6.1 ± 1.2 pH | Median (pH) (30 mg iv, 0–24 h): 6.4 ± 1.4 pH | TpH≥3(%) (30 mg iv, 0–24 h): 85.1 ± 15.7% | TpH≥4(%) (30 mg iv, 0–24 h): 79.8 ± 19.0% | TpH≥6(%) (30 mg iv, 0–24 h): 64.2 ± 21.0% | ΔMean (pH) (30 mg iv, 0–24 h): 3.4 ± 1.1 pH | ΔMedian (pH) (30 mg iv, 0–24 h): 4.3 ± 1.3 pH | ΔTpH≥3(%) (30 mg iv, 0–24 h): 58.6 ± 18.5% | ΔTpH≥4 (%) (30 mg iv, 0–24 h): 62.8 ± 20.3% | ΔTpH≥6(%) (30 mg iv, 0–24 h): 56.6 ± 18.8% | Mean (pH) (30 mg iv, 4–10 h): 6.9 ± 1.0 pH | Median (pH) (30 mg iv, 4–10 h): 7.1 ± 0.9 pH | TpH≥3(%) (30 mg iv, 4–10 h): 96.8 ± 7.6% | TpH≥4(%) (30 mg iv, 4–10 h): 94.5 ± 11.9% | TpH≥6(%) (30 mg iv, 4–10 h): 83.2 ± 22.3% | ΔMean (pH) (30 mg iv, 4–10 h): 4.2 ± 1.2 pH | ΔMedian (pH) (30 mg iv, 4–10 h): 4.6 ± 1.2 pH | ΔTpH≥3(%) (30 mg iv, 4–10 h): 60.4 ± 21.3% | ΔTpH≥4 (%) (30 mg iv, 4–10 h): 75.7 ± 19.2% | ΔTpH≥6(%) (30 mg iv, 4–10 h): 80.3 ± 22.3% | Mean (pH) (30 mg iv, 10–14 h): 7.2 ± 1.2 pH | Median (pH) (30 mg iv, 10–14 h): 7.3 ± 1.3 pH | TpH≥3(%) (30 mg iv, 10–14 h): 96.8 ± 9.5% | TpH≥4(%) (30 mg iv, 10–14 h): 95.0 ± 12.9% | TpH≥6(%) (30 mg iv, 10–14 h): 84.5 ± 24.3% | ΔMean (pH) (30 mg iv, 10–14 h): 4.2 ± 1.5 pH | ΔMedian (pH) (30 mg iv, 10–14 h): 4.5 ± 1.7 pH | ΔTpH≥3(%) (30 mg iv, 10–14 h): 54.1 ± 28.5% | ΔTpH≥4 (%) (30 mg iv, 10–14 h): 70.6 ± 26.4% | ΔTpH≥6(%) (30 mg iv, 10–14 h): 82.1 ± 23.6% | Mean (pH) (30 mg iv, 14–24 h): 5.5 ± 1.5 pH | Median (pH) (30 mg iv, 14–24 h): 5.3 ± 1.9 pH | TpH≥3(%) (30 mg iv, 14–24 h): 78.9 ± 27.7% | TpH≥4(%) (30 mg iv, 14–24 h): 70.6 ± 31.1%
